ChEMBL document CHEMBL3526006, “Metabolite profiling of bendamustine in urine of cancer patients after administration of [14C]bendamustine” (Drug Metab Dispos, 2012)

Key:
Format in all cases: ADME, organism-based
[1] = Drug level in human urine treated with [14C]bendamustine at 120 mg/m'2, iv up to 168 hrs by 60-min LC-LSC-MSn method; details: in vivo
[2] = Drug excretion in human urine treated with [14C]bendamustine at 120 mg/m'2, iv after 2 hrs by 60-min LC-LSC-MSn method; details: in vivo
[3] = Drug excretion in human urine assessed as retention time treated with [14C]bendamustine at 120 mg/m'2, iv after 2 hrs by 180 mins LC-LSC-MSn method
[4] = Drug excretion in human urine assessed as retention time treated with [14C]bendamustine at 120 mg/m'2, iv after 2 hrs by 60 mins LC-LSC-MSn method
[5] = Drug recovery in human urine at 120 mg/m'2, iv administered as single dose measured up to 3 weeks; details: read-out: Drug recovery
[6] = Drug excretion in human urine assessed as 4-(6-(bis(2-hydroxyethyl)amino)-1-methyl-1H-benzo[d]imidazol-2-yl)-4-hydroxybutanoic acid formation at 120 mg/m'2, iv up to 168 hrs by 60-min LC-LSC-MSn method; details: in vivo
[7] = Total drug recovery in human at 120 mg/m'2, iv administered as single dose measured up to 3 weeks; details: in vivo, read-out: Drug recovery
[8] = Drug excretion in human urine assessed as 4-(6-((2-(2-amino-2-carboxyethylthio)ethyl)(2-hydroxyethyl)amino)-1-methyl-1H-benzo[d]imidazol-2-yl)butanoic acid formation at 120 mg/m'2, iv up to 168 hrs by 60-min LC-LSC-MSn method; details: in vivo
[9] = Drug excretion in human urine assessed as 4-(6-(bis(2-hydroxyethyl)amino)-1-methyl-1H-benzo[d]imidazol-2-yl)butanoic acid formation at 120 mg/m'2, iv up to 168 hrs by 60-min LC-LSC-MSn method; details: in vivo
[10] = Drug excretion in human urine assessed as retention time at 120 mg/m'2, iv after 2 hrs by 180-min LC-LSC-MSn method
[11] = Drug excretion in human urine assessed as 4-(6-((2-(2-amino-2-carboxyethylthio)ethyl)(2-hydroxyethyl)amino)-1-methyl-1H-benzo[d]imidazol-2-yl)-4-hydroxybutanoic acid formation at 120 mg/m'2, iv up to 168 hrs by 60-min LC-LSC-MSn method; details: in vivo

Row | SMILES | Drug excretion [2] | Retention_time [3] | Retention_time [4] | other results
1 | Cn1c(CCCC(=O)O)nc2ccc(N(CCO)CCO)cc21 | > 1% | 33.7 min | 17.6 min | Drug excretion [1]: metabolite_detected
2 | Cn1c(CCCC(=O)O)nc2ccc(NCC=O)cc21 | > 1% | 29.4 min | 16.9 min | 
3 | Cn1c(CCCC(=O)O)nc2ccc(N(CCS)CCCl)cc21 | > 1% | 99.4 min | 35.1 min | 
4 | Cn1c(CCCC(=O)O)nc2ccc(N(CCO)CCOP(=O)(O)O)cc21 | > 1% | 22 min | 12.1 min | 
5 | Cn1c(C(O)CCC(=O)O)nc2ccc(N(CCO)CCSCC(N)C(=O)O)cc21 (centres undefined) | > 1% | 19.7 min | 11 min | Drug excretion [1]: metabolite_detected
6 | Cn1c(C(O)CCC(=O)O)nc2ccc(N(CCO)CCO)cc21 (centres undefined) | > 1% | 23.8 min | 13.3 min | Drug excretion [1]: metabolite_detected
7 | Cn1c(CCCC(=O)O)nc2ccc(NCCCl)cc21 | > 1% | 72.5 min | 28.6 min | 
8 | Cn1c(CCCC(=O)O)nc2ccc(N(CCO)CCSCC(N)C(=O)O)cc21 (centres undefined) | > 1% | 29 min | 15.8 min | Drug excretion [1]: metabolite_detected
9 | CC(=O)NC(CSCCN(CCCl)c1ccc2nc(CCCC(=O)O)n(C)c2c1)C(=O)O (centres undefined) | > 1% | 97.6 min | 32.2 min | 
10 | CN1CC(=O)N=C1NCCN(CCO)c1ccc2nc(CCCC(=O)O)n(C)c2c1 | > 1% | 24.2 min | 13.9 min | 
11 | Cn1c(C(O)CCC(=O)O)nc2ccc(N(CCO)CCCl)cc21 (centres undefined) | > 1% | 71.3 min | 27.1 min | 
12 | O=C(O)CCC(O)c1nc2ccc(N(CCCl)CCCl)cc2[nH]1 (centres undefined) | > 1% | 105.1 min | 35.3 min | 
13 | Cn1c(C(O)CCC(=O)O)nc2ccc(NCCCl)cc21 (centres undefined) | > 1% | 57.3 min | 25.4 min | 
14 | Cn1c(C(O)CCC(=O)O)nc2ccc(N(CCO)CCOP(=O)(O)O)cc21 (centres undefined) | > 1% | 14.7 min | 7.9 min | 
15 | Cn1c(C(O)CCC(=O)O)nc2ccc(N(CCCl)CCCl)cc21 (centres undefined) | > 1% | 104.5 min | 35.1 min | 
16 | Cn1c(CCCC(=O)O)nc2ccc(N(CCO)CCCl)cc21 | > 1% | 82.7 min | 29.2 min | 
17 | Cn1c(CCCC(=O)O)nc2ccc(N(CCO)CCS)cc21 | > 1% | 64.4 min | 24.2 min | 
18 | Cn1c(CCCC(=O)O)nc2ccc(N(CCCl)CCSCC(N)C(=O)O)cc21 (centres undefined) | > 1% | 73.7 min | 26.5 min | 
19 | Cl.Cn1c(CCCC(=O)O)nc2ccc(N(CCCl)CCCl)cc21 |  |  |  | dose excreted at 504 h [5]: 3%; Drug excretion [6]: metabolite_detected; dose excreted at 504 h [7]: 76%; Drug excretion [8]: metabolite_detected; Drug excretion [9]: metabolite_detected; Retention_time [10]: 36.3 min; Drug excretion [11]: metabolite_detected
20 | CN1CC(=O)N=C1NCCN(CCCl)c1ccc2nc(CCCC(=O)O)n(C)c2c1 | > 1% | 54.6 min | 23.1 min | 
21 | O=C(O)CCCc1nc2ccc(N(CCO)CCO)cc2[nH]1 | > 1% | 18.7 min | 10.9 min | 
22 | Cn1c(CCCC(=O)O)nc2ccc(N(CCCl)CCOP(=O)(O)O)cc21 | > 1% | 70.7 min | 26.1 min | 
